From EP0549291A1, “Thymidylate synthase inhibitors” (TAKEDA CHEMICAL INDUSTRIES, LTD., priority 1991, dated 1993)

Experiments:
[1] = target: T1, thymidylate synthase (TS) (Mus musculus, UniProt P07607); test: Assay of TS inhibitory activity; type: biochemical; details: crude TS fraction from Meth A cells; [H³]dUMP, 37°C, 1 hour; read-out: TS inhibitory activity IC₅₀
T1 construct: A crude fraction of TS was prepared from Meth A fibrosarcoma (Meth A) cells subcultured in vitro; endogenous in cells; host or cells: Meth A fibrosarcoma cells (100,000 x g supernatant of ultrasonicated cells)
Description: Assay of TS inhibitory activity
A crude fraction of TS was prepared from Meth A fibrosarcoma (Meth A) cells subcultured in vitro. For cell culture, Eagle's minimum essential medium (MEM, Nissui Pharmaceutical) containing 10% fetal bovine serum was used. Cells in the logarithmic growth phase were harvested, washed twice with phosphate buffered saline, suspended in 0.2 M sucrose and 0.01 M Tris-HCl buffer (pH 7.5), ultrasonicated, and centrifuged at 100,000 x g to obtain a supernatant. The protein concentration was determined using a protein dye reagent (Bio-Rad) with bovine γ-globulin as standard protein. Samples with a protein concentration of 100 mg/ml were prepared.
The enzymatic reaction was conducted as follows, using the method described by D. Roberts in Biochemistry 5, 3546 (1966), partially modified. The reaction mixture consisted of 0.058% formaldehyde, 6.78 mM sodium fluoride, 0.2 mM 2-mercaptoethanol, 6.24 mg/ml bovine serum albumin, 80 µM […] (dUMP), 80 µM tetrahydrofolic acid, 2 mg/ml crude TS fraction, and 0.173 M Tris-HCl buffer (pH 7.5). To this mixture was added a varying concentration of each Example compound. To 50 µl of each final mixture was added 540 KBq [H³]dUMP and the resultant mixture was incubated in a 96-well plate at 37°C for 1 hour. After completion of the incubation, 26.65% trichloroacetic acid and 3.33 mg/ml dUMP were added to stop the reaction and 220 µl of 11.4 mg/ml activated charcoal was added. The whole volume was centrifuged and the radioactivity in 100 µl of the supernatant was determined by the liquid scintillation method. Thus, the concentration required to cause 50% inhibition of TS activity (IC₅₀ value) was obtained.

[2] = tested on: Meth A fibrosarcoma (Meth A) cells; test: Assay of antiproliferative activity against Meth A fibrosarcoma (Meth A) cells; type: cell-based; details: Mus musculus, 72 hours culture at 37°C and 5% CO₂, cell count with Coulter counter, mean of 3 wells, read-out: Meth A cell growth inhibitory activity IC₅₀
Description: Assay of antiproliferative activity against Meth A fibrosarcoma (Meth A) cells
Meth A cells (2 x 10⁴ cells/ml) prepared in the routine manner were seeded, 2.0 ml per well, in a 12-well plate and subjected to stationary culture at 37°C and 5% CO₂. Each Example compound dissolved at an appropriate concentration was serially diluted 1:2 to 1:10 with MEM (Nissui Pharmaceutical) and added in the medium and again the cells were subjected to stationary culture for 72 hours at 37°C and 5% CO₂. Then, the total cell count at each concentration was determined with a Coulter counter (Coulter Electronics, FL) and the mean value of 3 wells was expressed as cell count per milliliter. The concentration of each compound required to reduce the cell count of the untreated control group to 50% was regarded as the IC₅₀ value of the compound.

T1 sequence (P07607 whole entry): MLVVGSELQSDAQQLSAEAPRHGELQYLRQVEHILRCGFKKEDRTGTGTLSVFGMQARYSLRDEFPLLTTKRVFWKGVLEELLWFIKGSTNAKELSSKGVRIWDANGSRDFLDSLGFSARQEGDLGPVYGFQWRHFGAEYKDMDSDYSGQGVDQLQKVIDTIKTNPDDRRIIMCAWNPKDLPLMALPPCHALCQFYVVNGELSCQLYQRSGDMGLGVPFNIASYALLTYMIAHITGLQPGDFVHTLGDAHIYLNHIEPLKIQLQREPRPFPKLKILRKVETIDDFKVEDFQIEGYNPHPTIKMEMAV

## Cn1cc(Cc2ccc(C(=O)N[C@@H](CCC(=O)O)C(=O)O)cc2)c2c(O)nc(N)nc21 [Example 2, N-[4-(2-amino-4-hydroxy-7-methylpyrrolo-[2,3-d]pyrimidin-5-yl)methylbenzoyl]-L-glutamic acid]
[1]
  IC50: 860 nM

## Nc1nc(O)c2c(Cc3ccc(C(=O)N[C@@H](CCC(=O)O)C(=O)O)cc3)c[nH]c2n1 [Example 4, N-[4-(2-amino-4-hydroxy-7H-pyrrolo[2,3-d]pyrimidin-5-yl)methylbenzoyl]-L-glutamic acid]
[2]
  IC50: 76 nM

## Nc1nc2[nH]cc(Cc3ccc(C(=O)N[C@@H](CCC(=O)O)C(=O)O)s3)c2c(=O)[nH]1 [Example 6, N-[5-(2-amino-4-hydroxy-7H-pyrrolo[2,3-d]pyrimidin-5-yl)methyl-2-thenoyl]-L-glutamic acid]
[1]
  IC50: 83 nM
[2]
  IC50: 63 nM

## Nc1nc(O)c2c(Cc3ccc(C(=O)N[C@@H](CCC(=O)O)C(=O)O)cc3F)c[nH]c2n1 [Example 8, N-[4-(2-amino-4-hydroxy-7H-pyrrolo[2,3-d]pyrimidin-5-yl)methyl-3-fluorobenzoyl]-L-glutamic acid]
[1]
  IC50: 490 nM
[2]
  IC50: 110 nM

## CC(c1ccc(C(=O)N[C@@H](CCC(=O)O)C(=O)O)cc1)c1c[nH]c2nc(N)nc(O)c12 (stereo partly drawn) [Example 10, N-[4-[1-(2-amino-4-hydroxy-7H-pyrrolo[2,3-d]pyrimidin-5-yl)ethyl]benzoyl]-L-glutamic acid]
[1]
  IC50: 39 nM
[2]
  IC50: 66 nM

## CCC(c1ccc(C(=O)N[C@@H](CCC(=O)O)C(=O)O)cc1)c1c[nH]c2nc(N)nc(O)c12 (stereo partly drawn) [Example 12, N-[4-[1-(2-amino-4-hydroxy-7H-pyrrolo[2,3-d]pyrimidin-5-yl)propyl]benzoyl]-L-glutamic acid]
[2]
  IC50: 39 nM

## C=CC(c1ccc(C(=O)N[C@@H](CCC(=O)O)C(=O)O)cc1)c1c[nH]c2nc(N)nc(O)c12 (stereo partly drawn) [Example 14, N-[4-[1-(2-amino-4-hydroxy-7H-pyrrolo[2,3-d]pyrimidin-5-yl)-2-propenyl]benzoyl]-L-glutamic acid]
[1]
  IC50: 37 nM
[2]
  IC50: 91 nM

## Nc1nc(O)c2c(C(C[N+](=O)[O-])c3ccc(C(=O)N[C@@H](CCC(=O)O)C(=O)O)cc3)c[nH]c2n1 (stereo partly drawn) [Example 16, N-[4-[1-(2-amino-4-hydroxy-7H-pyrrolo[2,3-d]pyrimidin-5-yl)-2-nitroethyl]benzoyl]-L-glutamic acid]
[1]
  IC50: 590 nM
[2]
  IC50: 93 nM

## NCC(c1ccc(C(=O)N[C@@H](CCC(=O)O)C(=O)O)cc1)c1c[nH]c2nc(N)nc(O)c12 (stereo partly drawn) [Example 18, N-[4-[1-(2-amino-4-hydroxy-7H-pyrrolo[2,3-d]pyrimidin-5-yl)-2-aminoethyl]benzoyl]-L-glutamic acid]
[2]
  IC50: 810 nM
